Measurements from article PMC3146558 (Cellular and molecular neurobiology, 2011).
Structures can show the parent of a compound that is named as a salt. Where two headings read alike, the source gives them in different places.

Tests used:
[1] = tested on: morphine induced cAMP overshoot; assay: Inhibition of morphine-induced cAMP overshoot, qHTS of LOPAC library; assay type: cell-based
HEK-MOR cells = assay: Assay performance in 1536-well plate format; assay type: cell-based; conditions: mean ± SD from 288 wells

Structure (SMILES)	IC50 ([1]; 18 h, read-out: Potency) [nM]	also measured
C=CCN1CC[C@]23c4c5ccc(O)c4O[C@H]2/C(=N/NC(=O)c2ccccc2)CC[C@@]3(O)[C@H]1C5 [Naloxone benzoylhydrazone]	410	–
C=C1C(=O)O[C@H]2[C@H]1CC/C(C)=C/CC[C@@]1(C)O[C@@H]21 [Parthenolide]	16400	–
O=C1CC[C@@]2(O)[C@H]3Cc4ccc(O)c5c4[C@@]2(CCN3CC2CC2)[C@H]1O5 [Naltrexone hydrochloride]	120	IC50 ([1]; read-out: IC50): 110 nM
C=CCN1CC[C@]23CCCC[C@H]2[C@H]1Cc1ccc(O)cc13 [Levallorphan tartrate]	330	IC50 ([1]; read-out: IC50): 320 nM
C[C@@]12C(=O)OC(=O)[C@]1(C)[C@H]1CC[C@@H]2O1 [Cantharidin]	13000	–
CN1CC[C@]23c4c5ccc(O)c4O[C@H]2[C@@H](O)C=C[C@H]3[C@H]1C5 [Morphine, morphine sulfate pentahydrate]	–	ratio (665nm/620nm), morphine treatment (HEK-MOR cells; NKH 477 10 nM): 1.63 ± 0.13; ratio (665nm/620nm), morphine treatment (HEK-MOR cells; NKH 477 25 nM): 1.08 ± 0.05; ratio (665nm/620nm), morphine treatment (HEK-MOR cells; NKH 477 50 nM): 0.88 ± 0.04
CCCCCCCCCCCCCCCCCC(=O)NCC(COP(=O)([O-])OCC[N+](C)(C)C)OCC (racemic) [rac-2-Ethoxy-3-octadecanamido-1-propylphosphocholine]	18400	–
CC1(C(=O)O)C2CCC(O2)C1(C)C(=O)O (centres unmarked) [Cantharidic Acid]	14600	–
CCCN(CCC)CCc1cccc2c1CC(=O)N2 [Ropinirole hydrochloride]	18400	–
CCC(=O)c1ccc2c(c1)N(CCCN(C)C)c1ccccc1S2 [Propionylpromazine hydrochloride]	16400	–
Oc1ccc2c3c1O[C@H]1c4oc5ccccc5c4C[C@@]4(O)[C@@H](C2)N(CC2CC2)CC[C@]314 [Naltriben methanesulfonate]	2310	–
Oc1ccc2c3c1O[C@H]1c4[nH]c5ccccc5c4C[C@@]4(O)[C@@H](C2)N(CC2CC2)CC[C@]314 [Naltrindole hydrochloride]	820	IC50 ([1]; read-out: IC50): 810 nM
